We go through 1 compound from patent US8957056B2, “Migrastatin analogs in the treatment of cancer” (Sloan-Kettering Instiute for Cancer Research, priority 2004, dated 2015).

Series [1] deals with Ovcar3. The experiment in a line: Cell proliferation and viability assay (XTT), Ovcar3. It is filed as cell-based, human. The note with it: 72 h in total. How it is done:
(§1) Cell proliferation and viability measurement were assessed by a colorimetric assay using sodium 39-(phenylaminocarbonyl)-3,4-tetrazolium-bis(4-methoxy-6-nitro) benzene sulfonic acid hydrate (XTT, Sigma, St. Louis, Mo.), and phenazine methosulphate (PMS, Sigma, St. Louis, Mo.). Cells from indicated lines were plated at 5˜10×10×10^3/well in 96 well plates in the presence of different concentration of compounds for 52 hrs. Then 50 μL of XTT/PMS mixture was added to each well and incubated for an additional 20 hrs at 37° C. Plate absorbance was measured directly at optical density of 490 nm (reference wavelength at 650 nm) in an ELISA reader (Thermo Max Microplate Reader, Molecular Devices, CA). The data was expressed as the mean of readings obtained in wells with treatment with subtraction of the reading with vehicle control. The total metabolic activity, which correspond to the number of living cells directly correlate to the amount of orange formazan formed in a cell. The result is expressed as percentage of the control.
For orientation: Tetrazolium dyes change colour on reduction, which living cells bring about.

Series [2] relates to SKOV. Put plainly: Cell proliferation and viability assay (XTT), SKOV. The note with it: 72 h in total, no morphological sign of apoptosis or cell death. It is filed as cell-based, human. How it is done:
as §1

The test system of series [3] is CAG cells. Put plainly: CAG cell proliferation assay (XTT). It is filed as cell-based, human. The following applies: printed in the legend on CAG cell proliferation; read-out: IC50 (legend of FIG. 3). How it is done: In the last 20 hours, sodium 3′-[1-(phenylamino-carbonyl)-3,4-tetrazolium]-bis(4-methoxy-6-nitro) benzene sulfonic acid hydrate (XTT) was added and optical absorbance at 490 nm were measured. As reference wavelength 650 nm was used. […] The result was expressed as percentage of the control.

For series [4], the system named is human colon cancer cells (HT29). The experiment in a line: Microarray analysis of treated HT29 cells. It is filed as cell-based. The note with it: 500 nM, 6 h and 18 h. As for the experimental part: (§2) For the microarray comparison (Affymetrix chip -AU133 plus) human ovarian cancer cells (Ovcar3) and human colon cancer cells (HT29) were treated with 500 nM DMC (48) for 6 h and 18 h or left untreated. A large panel of up and down regulated genes were detected including a broad array of motility, cell shape and chemotaxis genes (FIG. 17).

Series [5] concerns HCT116. The experiment in a line: Cell proliferation and viability assay (XTT), HCT116. The note with it: 72 h in total. It is filed as cell-based, human. How it is done: as §1
The test system of series [6] is human ovarian cancer cell line IGROV. The experiment in a line: Wound healing (scratch) assay, IGROV. It is filed as cell-based. Details: key: successful (+); unsuccessful (−) inhibition of cell migration. The note with it: 10X IC50: 48 (240 nM), 55 (1000 nM), 60 (2550 nM); 24 and 48 h. As for the experimental part: (§3) The human ovarian cancer cell lines Ovcar3 and IGROV were grown in M5 media. The colon cell lines HT 29 and HCT 116 were cultivated in DMEM containing 10% FCS in a humidified environment at 37° C. Myeloma cell lines CAG (obtained from The Myeloma Institute for Research and Therapy, University of Arkansas) and RPMI8226 as well as lymphoma cell line RL were maintained at RPMI1640 medium containing 10% FCS. All cell lines were acquired from the ATCC if not otherwise stated.
(§4) The tumor cells were seeded into 24-multiwell plates (Becton-Dickinson) and cultivated until the cells formed a confluent monolayer. Wounds were set by horizontally scratching the monolayer with a sterile pipette tip. The cells were thereafter washed twice with Phosphate Buffered Saline (PBS) to remove detached cells. Growth media was then added containing different concentrations of the chemical compound and incubated at 37° C. […] The cells were photographed at the beginning of the experiment and after 24 and 48 h to assess the progression of cell migration into the wound.

Series [7] relates to colon cell line HCT 116. Put plainly: Wound healing (scratch) assay, HCT 116. Details: key: successful (+); unsuccessful (−) inhibition of cell migration. It is filed as cell-based, human. The note with it: 10X IC50: 48 (240 nM), 55 (1000 nM), 60 (2550 nM); 24 and 48 h. How it is done: as §3, §4
Series [8] relates to Ovcar4. Put plainly: Cell proliferation and viability assay (XTT), Ovcar4. It is filed as cell-based, human. The note with it: 72 h in total. How it is done:
as §1

The test system of series [9] is human ovarian cancer cells Ovcar3. Put plainly: Immunofluorescence staining of treated Ovcar3 cells. The note with it: 500 nM. The series is classed as cell-based. As for the experimental part:
as §2
Ovcar3 cells in exponential growth phase were seeded into 24 well plates at 2×10^4/ml in the presence of 500 nM of DMC (48). […] At the time of staining, cells were pre-blocked at room temperature in PBS with 3% BSA and 0.2% Na-azide. After washing, the cells were then incubated with indicated monoclonal antibody (FIG. 18), diluted 1:200 in 1.5% blocking serum, at 37° C. Cells were washed again and incubated with anti-mouse-Alexa red secondary antibody in the dark at 37° C. Cells were then counter-stained with 4,6-diamidino-2-phenylindole (DAPI) at 0.2 μg/ml PBS.

A short description of series [10]: Mouse blood plasma stability. The note with it: test period one hour. As for the experimental part: The biological evaluation of the compounds (in terms of their ability to inhibit cell migration) was accomplished in a Boyden chamber cell migration assay. In this assay, mouse breast tumor cells (4T1 cells) or endothelial cells (HUVECs) are seeded on the upper chamber of a transwell insert. Growth factor-containing serum is added to the lower chamber.
In anticipation of subsequent in vivo evaluation of these compounds and others, preliminary metabolic stability studies were carried out. […] As a test of the ‘deactivation hypothesis’, the hydrolysis product of macrolactone 48 was prepared (Scheme 27) and tested for its activity against tumor cell migration.

Series [11] relates to human ovarian tumor cell line OVCAR3. The experiment in a line: In vivo metastatic ovarian xenograph model (OVCAR3 HSV-TK/eGFP/FLuc). Details: species or system mouse. The text has this:
The human ovarian tumor cell line OVCAR3 was transduced with a triple fusion gene HSV-TK/eGFP/FLuc, expressing thymidine kinase, enhanced green fluorescence protein and firefly luciferase. Whole animal imaging by luciferase bioluminescence (FIGS. 7A & B), allowed identification and quantification of disseminated tumor. We quantified the tumor burden in each organ, by sacrificing the mouse shortly after luciferin injecting and imaging of the dissected organs (lung, liver and spleen) (FIG. 8). In all instances tumor engraftment was initiated with 1-5×10^7 cells and the recipients received 3 Gy irradiation 10 days before tumor engraftment. These tumor cells generated bulky omental metastases with diffuse microscopic peritoneal carcinomatosis causing ascites (FIG. 9), significant pleural effusion with diffuse macroscopic peritoneal carcinomatosis and liver, lung and paraaortic metastases.
Treatment was initiated once primary tumor was well established. Animals were imaged at weekly intervals to monitor tumor growth and location of metastases (imaging sensitivity 200-500 cells).

For series [12], the system named is human ovarian cancer cell line Ovcar3. Put plainly: Wound healing (scratch) assay, Ovcar3. It is filed as cell-based. Details: key: successful (+); unsuccessful (−) inhibition of cell migration. The following applies: 10X IC50: 48 (240 nM), 55 (1000 nM), 60 (2550 nM); 24 and 48 h. As for the experimental part: as §3, §4
Series [13] deals with human breast cancer cell line MDA MB435. Put plainly: Wound healing (scratch) assay, MDA MB435. The note with it: 10X IC50: 48 (240 nM), 55 (1000 nM), 60 (2550 nM); 24 and 48 h. Details: key: successful (+); unsuccessful (−) inhibition of cell migration. The series is classed as cell-based. As for the experimental part:
as §4

Series [14] concerns mouse breast tumor cells (4T1 cells). Put plainly: Boyden chamber cell migration assay, 4T1. It is filed as cell-based. The note with it: 4T1 tumor cells, 6-8 hours; read-out: IC50 value, chamber cell migration assay.
Series [15] concerns HT29. Put plainly: Cell proliferation and viability assay (XTT), HT29. It is filed as cell-based, human. The following applies: 72 h in total, no morphological sign of apoptosis or cell death. How it is done:
as §1

Series [16] relates to human breast cancer cell line MDA MB435. The experiment in a line: Chamber cell migration assay, MDA MB435. It is filed as cell-based. The following applies: highly metastatic human breast cancer cell line. As for the experimental part:
Cell migrations were assayed with 8 μm of microporous 6.5-mm transwell plates (Corning). 200 μl of 2×10^5 cells in serum-free RPMI1640 medium containing 0.5% BSA were added to the upper chamber and 600 μl of medium with 10% fetal bovine serum was added to the lower chamber. […] Cells migrated to the lower wells were collected and counted for liquid tumors, solid tumors were processed as previously described.^28 Data shown are representative of at least three experiments.

The subject of series [17] is IGROV. The experiment in a line: Cell proliferation and viability assay (XTT), IGROV. The series is classed as cell-based, human. The note with it: 72 h in total, no morphological sign of apoptosis or cell death. As for the experimental part: as §1
Series [18] relates to human colon cancer cell line HT 29. The experiment in a line: Wound healing (scratch) assay, HT 29. It is filed as cell-based. Details: key: successful (+); unsuccessful (−) inhibition of cell migration. The note with it: 10X IC50: 48 (240 nM), 55 (1000 nM), 60 (2550 nM); 24 and 48 h. As for the experimental part:
as §3, §4

Setting [19] is: 40 mg/kg three times a week for 10 treatments.
[20] abbreviates: daily injection of 40 mg/kg i.p.

With `CO[C@H]1/C=C/CCCCC(=O)OC/C(C)=C\[C@@H](C)[C@@H]1O` [Compound 48, Macrolactone], the “effect on proliferation, Ovcar3” value in series [1] is “uninfluenced”. The “effect on proliferation, SKOV” value in series [2] is given as “inhibition of proliferation”. The IC50 in series [3] worked out at 0.024 µM. Also, the “E-cadherin expression, micro array” value in series [4] was “upregulation”. The “effect on proliferation, HCT116” value in [5] was “uninfluenced”. Also, in series [6], the “inhibition of cell migration, wound healing assay, IGROV” value is “+”. Moreover, in series [7], the “inhibition of cell migration, wound healing assay, HCT 116” value was “+”. Moreover, in series [8], the “effect on proliferation, Ovcar4” value is reported as “uninfluenced”. Further, the “Integrin α2 and CD44, immunofluorescent microscopy” value in series [9] is on record as “Upregulated”. Also, the “β-tubulin, immunofluorescent microscopy” value in [9] (after 6 h or 24 h) is “did not show any modulations”. In [10], the “metabolic stability in mouse blood plasma” value was “hydrolyzed rapidly”. In series [11] (setting [19]), the “reduction of metastasis for liver” value is reported as 80%; the “reduction of metastasis in lung and spleen” value was “highly significant reduction”. For the same compound, the “treated mice that had ascitis” value in series [11] (FIG. 9, 4 out of 4 control mice had ascitis) was 1 out of 4. In addition, in series [11] (setting [20]), the “survival” value was “increase of survival” and the “total tumor mass” value is on record as “reduction of the total tumor mass”. Moreover, the “mice with inhibition of ascitis at the endpoint” value in series [11] (daily injection of 40 mg/kg i.p., all control mice developed ascites) is 3 out of 4. The “inhibition of cell migration, wound healing assay, Ovcar3” value in [12] is recorded as “+”. For the same compound, in series [13], the “inhibition of cell migration, wound healing assay, MDA MB435” value is “+”. For the same compound, the IC50 in [14] was found to be 0.024 µM. In addition, the “effect on proliferation, HT29” value in series [15] is “inhibition of proliferation”. Also, the “response of MDA MB435 to the compound” value in [16] is on record as “responded only slightly”. The “effect on proliferation, IGROV” value in [17] is reported as “inhibition of proliferation”. Besides, in series [18], the “inhibition of cell migration, wound healing assay, HT 29” value is “+”.
